Assay: Clinical safety, Study ALZ1005
Assay type: in vivo, human
Settings: for patients with one or more TEAEs: Caucasian early AD; for Subjects with any TEAE / TEAE: Accidental overdose / TEAE: Anxiety / TEAE: Bladder cancer / TEAE: Conjunctivitis / TEAE: Dementia Alzheimer’s type / TEAE: Depressed mood / TEAE: Dermatitis allergic / TEAE: Dizziness / TEAE: Eczema vesicular / TEAE: Fatigue / TEAE: Gastrointestinal disorders / TEAE: General disorders and administration site conditions / TEAE: Headache / TEAE: Hypertension / TEAE: Infections and infestations / TEAE: Injury, poisoning and procedural complications / TEAE: Insomnia / TEAE: Irritability / TEAE: Musculoskeletal and connective tissue disorders / TEAE: Nasopharyngitis / TEAE: Nausea / TEAE: Neck pain / TEAE: Neoplasms benign, malignant and unspecified / TEAE: Nervous system disorders / TEAE: Post lumbar puncture syndrome / TEAE: Psoriasis / TEAE: Psychiatric disorders / TEAE: Renal and urinary disorders / TEAE: Renal colic / TEAE: Reproductive system and breast disorders / TEAE: Skin and subcutaneous tissue disorders / TEAE: Somnolence / TEAE: Syncope / TEAE: Urticaria / TEAE: Vascular disorders / TEAE: Vulvovaginal candidiasis / TEAE: Vulvovaginal pruritus: MCI due to AD
Description: Safety and tolerability were assessed during the study by recording adverse events (AEs), clinically significant abnormalities, clinical laboratory tests, ECG, and vital signs and by performing physical, neurological, and MRI examinations. All enrolled participants were included in the safety analysis population.

C[C@@]1(c2cc(NC(=O)c3ccc(C#N)cn3)ccc2F)C=CSC(N)=N1 [atabecestat]
relevant abnormal neurological finding (10 mg, one participant, day 28): mild ataxia | events considered possibly related to the study drug (50-mg group): urticaria (n = 1) | events considered probably related to the study drug (50-mg group): nausea (n = 1), dementia of Alzheimer’s type (n = 1), headache (n = 1) | tolerability (Caucasian and Japanese, 10 and 50 mg, 4 weeks): well tolerated | patients with one or more TEAEs (10-mg group, 3 of 15 patients): 20.0% | patients with one or more TEAEs (50-mg group, 8 of 16 patients): 50.0% | participants with no microhemosiderin deposits in the brain on MRI at end of treatment (Caucasian, atabecestat groups, 80.6% at baseline): 90.3% | Subjects with any TEAE (10 mg, N=10): ^2 (20.0) n (%) | TEAE: Accidental overdose (10 mg, N=10): ^1 (10.^0) n (%) | TEAE: Anxiety (10 mg, N=10): ^0 n (%) | TEAE: Bladder cancer (10 mg, N=10): ^0 n (%) | TEAE: Conjunctivitis (10 mg, N=10): ^0 n (%) | TEAE: Dementia Alzheimer’s type (10 mg, N=10): ^0 n (%) | TEAE: Depressed mood (10 mg, N=10): ^0 n (%) | TEAE: Dermatitis allergic (10 mg, N=10): ^0 n (%) | TEAE: Dizziness (10 mg, N=10): ^0 n (%) | TEAE: Eczema vesicular (10 mg, N=10): ^0 n (%) | TEAE: Fatigue (10 mg, N=10): ^0 n (%) | TEAE: Gastrointestinal disorders (10 mg, N=10): ^0 n (%) | TEAE: General disorders and administration site conditions (10 mg, N=10): ^0 n (%) | TEAE: Headache (10 mg, N=10): ^0 n (%) | TEAE: Hypertension (10 mg, N=10): ^0 n (%) | TEAE: Infections and infestations (10 mg, N=10): ^0 n (%) | TEAE: Injury, poisoning and procedural complications (10 mg, N=10): ^2 (20.0) n (%) | TEAE: Insomnia (10 mg, N=10): ^0 n (%) | TEAE: Irritability (10 mg, N=10): ^0 n (%) | TEAE: Musculoskeletal and connective tissue disorders (10 mg, N=10): ^0 n (%) | TEAE: Nasopharyngitis (10 mg, N=10): ^0 n (%) | TEAE: Nausea (10 mg, N=10): ^0 n (%) | TEAE: Neck pain (10 mg, N=10): ^0 n (%) | TEAE: Neoplasms benign, malignant and unspecified (10 mg, N=10): ^0 n (%) | TEAE: Nervous system disorders (10 mg, N=10): ^0 n (%) | TEAE: Post lumbar puncture syndrome (10 mg, N=10): ^2 (20.^0) n (%) | TEAE: Psoriasis (10 mg, N=10): ^0 n (%) | TEAE: Psychiatric disorders (10 mg, N=10): ^0 n (%) | TEAE: Renal and urinary disorders (10 mg, N=10): ^0 n (%) | TEAE: Renal colic (10 mg, N=10): ^0 n (%) | TEAE: Reproductive system and breast disorders (10 mg, N=10): ^0 n (%) | TEAE: Skin and subcutaneous tissue disorders (10 mg, N=10): ^0 n (%) | TEAE: Somnolence (10 mg, N=10): ^0 n (%) | TEAE: Syncope (10 mg, N=10): ^0 n (%) | TEAE: Urticaria (10 mg, N=10): ^0 n (%) | TEAE: Vascular disorders (10 mg, N=10): ^0 n (%) | TEAE: Vulvovaginal candidiasis (10 mg, N=10): ^0 n (%) | TEAE: Vulvovaginal pruritus (10 mg, N=10): ^0 n (%) | Subjects with any TEAE (50 mg, N=10): ^6 (60.0) n (%) | TEAE: Accidental overdose (50 mg, N=10): ^1 (10.^0) n (%) | TEAE: Anxiety (50 mg, N=10): ^1 (10.^0) n (%) | TEAE: Bladder cancer (50 mg, N=10): ^0 n (%) | TEAE: Conjunctivitis (50 mg, N=10): ^0 n (%) | TEAE: Dementia Alzheimer’s type (50 mg, N=10): ^1 (10.^0) n (%) | TEAE: Depressed mood (50 mg, N=10): ^1 (10.^0) n (%) | TEAE: Dermatitis allergic (50 mg, N=10): ^1 (10.^0) n (%) | TEAE: Dizziness (50 mg, N=10): ^0 n (%) | TEAE: Eczema vesicular (50 mg, N=10): ^1 (10.^0) n (%) | TEAE: Fatigue (50 mg, N=10): ^0 n (%) | TEAE: Gastrointestinal disorders (50 mg, N=10): ^1 (10.0) n (%) | TEAE: General disorders and administration site conditions (50 mg, N=10): ^0 n (%) | TEAE: Headache (50 mg, N=10): ^1 (10.^0) n (%) | TEAE: Hypertension (50 mg, N=10): ^0 n (%) | TEAE: Infections and infestations (50 mg, N=10): ^1 (10.^0) n (%) | TEAE: Injury, poisoning and procedural complications (50 mg, N=10): ^2 (20.^0) n (%) | TEAE: Insomnia (50 mg, N=10): ^0 n (%) | TEAE: Irritability (50 mg, N=10): ^1 (10.^0) n (%) | TEAE: Musculoskeletal and connective tissue disorders (50 mg, N=10): ^1 (10.^0) n (%) | TEAE: Nasopharyngitis (50 mg, N=10): ^0 n (%) | TEAE: Nausea (50 mg, N=10): ^1 (10·^0) n (%) | TEAE: Neck pain (50 mg, N=10): ^1 (10.^0) n (%) | TEAE: Neoplasms benign, malignant and unspecified (50 mg, N=10): ^0 n (%) | TEAE: Nervous system disorders (50 mg, N=10): ^2 (^20^.0) n (%) | TEAE: Post lumbar puncture syndrome (50 mg, N=10): ^1 (10.^0) n (%) | TEAE: Psoriasis (50 mg, N=10): ^0 n (%) | TEAE: Psychiatric disorders (50 mg, N=10): ^2 (^20^.0) n (%) | TEAE: Renal and urinary disorders (50 mg, N=10): ^1 (10.^0) n (%) | TEAE: Renal colic (50 mg, N=10): ^1 (10.^0) n (%) | TEAE: Reproductive system and breast disorders (50 mg, N=10): ^1 (10.^0) n (%) | TEAE: Skin and subcutaneous tissue disorders (50 mg, N=10): ^2 (^20^.0) n (%) | TEAE: Somnolence (50 mg, N=10): ^0 n (%) | TEAE: Syncope (50 mg, N=10): ^0 n (%) | TEAE: Urticaria (50 mg, N=10): ^0 n (%) | TEAE: Vascular disorders (50 mg, N=10): ^0 n (%) | TEAE: Vulvovaginal candidiasis (50 mg, N=10): ^1 (10.^0) n (%) | TEAE: Vulvovaginal pruritus (50 mg, N=10): ^1 (10.^0) n (%) | Subjects with any TEAE (JNJ-54861911 total, N=20): ^8 (40.0) n (%) | TEAE: Accidental overdose (JNJ-54861911 total, N=20): ^2 (10.0) n (%) | TEAE: Anxiety (JNJ-54861911 total, N=20): ^1 (5.0) n (%) | TEAE: Bladder cancer (JNJ-54861911 total, N=20): ^0 n (%) | TEAE: Conjunctivitis (JNJ-54861911 total, N=20): ^0 n (%) | TEAE: Dementia Alzheimer’s type (JNJ-54861911 total, N=20): ^1 (5.0) n (%) | TEAE: Depressed mood (JNJ-54861911 total, N=20): ^1 (5.0) n (%) | TEAE: Dermatitis allergic (JNJ-54861911 total, N=20): ^1 (5.0) n (%) | TEAE: Dizziness (JNJ-54861911 total, N=20): ^0 n (%) | TEAE: Eczema vesicular (JNJ-54861911 total, N=20): ^1 (5.0) n (%) | TEAE: Fatigue (JNJ-54861911 total, N=20): ^0 n (%) | TEAE: Gastrointestinal disorders (JNJ-54861911 total, N=20): ^1 (5.0) n (%) | TEAE: General disorders and administration site conditions (JNJ-54861911 total, N=20): ^0 n (%) | TEAE: Headache (JNJ-54861911 total, N=20): ^1 (5.0) n (%) | TEAE: Hypertension (JNJ-54861911 total, N=20): ^0 n (%) | TEAE: Infections and infestations (JNJ-54861911 total, N=20): ^1 (5.0) n (%) | TEAE: Injury, poisoning and procedural complications (JNJ-54861911 total, N=20): ^4 (20.0) n (%) | TEAE: Insomnia (JNJ-54861911 total, N=20): ^0 n (%) | TEAE: Irritability (JNJ-54861911 total, N=20): ^1 (5.0) n (%) | TEAE: Musculoskeletal and connective tissue disorders (JNJ-54861911 total, N=20): ^1 (5.0) n (%) | TEAE: Nasopharyngitis (JNJ-54861911 total, N=20): ^0 n (%) | TEAE: Nausea (JNJ-54861911 total, N=20): ^1 (5.0) n (%) | TEAE: Neck pain (JNJ-54861911 total, N=20): ^1 (5.0) n (%) | TEAE: Neoplasms benign, malignant and unspecified (JNJ-54861911 total, N=20): ^0 n (%) | TEAE: Nervous system disorders (JNJ-54861911 total, N=20): ^2 (10.0) n (%) | TEAE: Post lumbar puncture syndrome (JNJ-54861911 total, N=20): ^3 (15.0) n (%)
